Data on 32 compounds can be found in US8946453B2, “Chemical compounds” (Syngenta Participations AG, priority 2011, dated 2015).

Structures are written as SMILES.

Series [1] has as its system Myzus persicae (Green Peach Aphid). Put plainly: Activity against Myzus persicae on cabbage plants, feeding/residual contact, spray chamber. To be noted: in Brassica oleracea, 144 h, read-out: activity against Myzus persicae.
Series [2] shares this test system. Put plainly: Activity against Myzus persicae, mixed population, feeding/residual contact, preventive (sunflower leaf discs). The following applies: foliar, 144 h, read-out: activity.
Series [3] shares this test system. Put plainly: Activity against Myzus persicae, mixed population, systemic/feeding, curative (pea seedling roots in test solution). The following applies: 144 h, read-out: activity.

The term melting point denotes the temperature of the solid-liquid transition. For `CCOC(=O)OC1=C(c2cc(C)ccc2C)C(=O)NC1CC1CCS(=O)(=NC(=O)C(F)(F)F)CC1` (single isomer, unassigned) [Compound P1.6, carbonic acid 4-(2,5-dimethyl-phenyl)-5-oxo-2-[1-oxo-1-(2,2,2-trifluoro-acetylimino)-hexahydro-1λ^6-thiopyran-4-ylmethyl]-2,5-dihydro-1H-pyrrol-3-yl ester ethyl ester], the melting point is 91 to 93 °C.

As to `CCOC(=O)OC1=C(c2cc(C)ccc2C)C(=O)NC1CC1CCS(=O)(=NC(=O)C(F)(F)F)CC1` (single isomer, unassigned) [Compound P1.7, carbonic acid 4-(2,5-dimethyl-phenyl)-5-oxo-2-[1-oxo-1-(2,2,2-trifluoro-acetylimino)-hexahydro-1λ^6-thiopyran-4-ylmethyl]-2,5-dihydro-1H-pyrrol-3-yl ester ethyl ester], the melting point was in the range of 87 to 89 °C.

With `CCOC(=O)OC1=C(c2cc(C)ccc2C)C(=O)NC1CC1CCN(OC)CC1` (stereo not drawn) [Compound P1.1, carbonic acid 4-(2,5-dimethyl-phenyl)-2-(1-methoxy-piperidin-4-ylmethyl)-5-oxo-2,5-dihydro-1H-pyrrol-3-yl ester ethyl ester], the pest or weed control at 200 ppm in series [1] was at least 80%. For the same compound, the pest or weed control at 400 ppm in series [2] was above 80%.

As to `CCOC(=O)OC1=C(c2cc(C)ccc2C)C(=O)NC1CC1CCSCC1` (stereo not drawn) [Compound P1.2, carbonic acid 4-(2,5-dimethyl-phenyl)-5-oxo-2-(tetrahydro-thiopyran-4-ylmethyl)-2,5-dihydro-1H-pyrrol-3-yl ester ethyl ester], the melting point was 75 to 76 °C.

For the compound `CCOC(=O)OC1=C(c2cc(C)ccc2C)C(=O)NC1CC1CCS(=O)(=O)CC1` (stereo not drawn) [Compound P1.3], the melting point lay in the range of 97 to 101 °C.

Turning to `CCOC(=O)OC1=C(c2cc(C)ccc2C)C(=O)NC1CC1CC[S+]([O-])CC1` (stereo not drawn) [Compound P1.4, carbonic acid 4-(2,5-dimethyl-phenyl)-5-oxo-2-(1-oxo-hexahydro-1λ^4-thiopyran-4-ylmethyl)-2,5-dihydro-1H-pyrrol-3-yl ester ethyl ester], the melting point lay within 103 to 106 °C.

As for `CCOC(=O)OC1=C(c2cc(C)ccc2C)C(=O)NC1CC1CCS(=O)(=NC#N)CC1` (stereo not drawn) [Compound P1.5], the pest or weed control at 400 ppm in series [2] was above 80%.

Consider `CCOC(=O)OC1=C(c2cc(C)ccc2C)C(=O)NC1CC1CCS(=NC(=O)C(F)(F)F)CC1` (stereo not drawn) [Compound P1.8], for which the melting point fell in the range of 190 to 192 °C.

In the case of `CCOC(=O)OC1=C(c2cc(C)ccc2C)C(=O)NC1CC1CCS(=NC#N)CC1` (stereo not drawn) [Compound P1.9, carbonic acid 2-(1-cyanoimino-hexahydro-1λ^4-thiopyran-4-ylmethyl)-4-(2,5-dimethyl-phenyl)-5-oxo-2,5-dihydro-1H-pyrrol-3-yl ester ethyl ester], the melting point is 103 to 105 °C.

For `CCOC(=O)OC1=C(c2c(C)cc(C)cc2C)C(=O)NC1CC1CCN(OC)CC1` (stereo not drawn) [Compound P1.10], the pest or weed control at 200 ppm in series [1] was at least 80%. Further, the pest or weed control at 400 ppm in series [2] and in series [3] was above 80% in each case.

`CCOC(=O)OC1=C(c2cc(C)ccc2C)C(=O)NC1C1CCN(OC)CC1` (stereo not drawn) [Compound P1.11]: the pest or weed control at 200 ppm in series [1] is at least 80%. For the same compound, in series [3], the pest or weed control at 400 ppm was above 80%.

Regarding `CCOC(=O)OC1=C(c2c(C)cc(C)cc2C)C(=O)NC1C1CCN(OC)CC1` (stereo not drawn) [Compound P1.12, carbonic acid ethyl ester 2-(1-methoxy-piperidin-4-yl)-5-oxo-4-(2,4,6-trimethyl-phenyl)-2,5-dihydro-1H-pyrrol-3-yl ester], the pest or weed control at 200 ppm in series [1] is at least 80%. For the same compound, the pest or weed control at 400 ppm in series [2] and in series [3] was above 80% in each case.

Consider `CCOC(=O)OC1=C(c2c(C)cc(C)cc2C)C(=O)N(C)C1CC1CCN(OC)CC1` (stereo not drawn) [Compound P1.13], for which the pest or weed control at 200 ppm in series [1] is at least 80%. The pest or weed control at 400 ppm in series [2] was above 80%.

For `CCOC(=O)OC1=C(c2c(C)cc(C)cc2C)C(=O)OC1CC1CCN(OC)CC1` (stereo not drawn) [Compound P1.14], the pest or weed control at 200 ppm in series [1] was at least 80%. The pest or weed control at 400 ppm in series [3] was above 80%.

As to `CCOC(=O)OC1=C(c2c(C)cc(C)cc2C)C(=O)OC1C1CCN(OC)CC1` (stereo not drawn) [Compound P1.15], the pest or weed control at 200 ppm in series [1] was at least 80%. Besides, the pest or weed control at 400 ppm in series [2] and in series [3] was above 80% in each case.

As to `Cc1cc(C)c(C2=C(OC(=O)C(C)(C)C)C(CC3CCOCC3)OC2=O)c(C)c1` (stereo not drawn) [Compound P1.16], the pest or weed control at 400 ppm in series [2] was above 80%.

As for `CCOC(=O)OC1=C(c2c(C)cc(Cl)cc2C)C(=O)NC1C1CCN(OC)CC1` (stereo not drawn) [Compound P1.18], the pest or weed control at 400 ppm in series [2] was above 80%.

Turning to `CCOC(=O)OC1=C(c2c(C)cc(Cl)cc2C)C(=O)NC1CC1CCN(OC)CC1` (stereo not drawn) [Compound P1.19], in series [3], the pest or weed control at 400 ppm was above 80%.

For the compound `Cc1cc(C)c(C2C(=O)NC(CC3CCOCC3)C2=O)c(C)c1` (stereo not drawn) [Compound P2.1], the pest or weed control at 400 ppm in series [2] is above 80%.

In the case of `CON1CCC(CC2NC(=O)C(c3cc(C)ccc3C)=C2O)CC1` (stereo not drawn) [Compound P2.2, 3-(2,5-dimethyl-phenyl)-4-hydroxy-5-(1-methoxy-piperidin-4-ylmethyl)-1,5-dihydro-pyrrol-2-one], the pest or weed control at 400 ppm in series [2] was above 80%.

As for `Cc1ccc(C)c(C2C(=O)NC(CC3CCOCC3)C2=O)c1` (stereo not drawn) [Compound P2.4], the melting point is 114 to 116 °C.

For `Cc1ccc(C)c(C2=C(O)C(CC3CCS(=O)(=O)CC3)NC2=O)c1` (stereo not drawn) [Compound P2.6, 3-(2,5-dimethyl-phenyl)-5-(1,1-dioxo-hexahydro-1λ^6-thiopyran-4-ylmethyl)-4-hydroxy-1,5-dihydro-pyrrol-2-one], the melting point was in the range of 244 to 246 °C.

As for `Cc1ccc(C)c(C2C(=O)NC(CC3CCS(=O)(=NC#N)CC3)C2=O)c1` (stereo not drawn) [Compound P2.9], the melting point was in the range of 189 to 191 °C.

In the case of `Cc1ccc(C)c(C2C(=O)NC(CC3CCN(C)CC3)C2=O)c1` (stereo not drawn) [Compound P2.10], the melting point was in the range of 142 to 145 °C.

Turning to `Cc1cc(C)c(C2C(=O)NC(CC3CCN(C)CC3)C2=O)c(C)c1` (stereo not drawn) [Compound P2.11], the melting point was 133 to 136 °C.

For `CON1CCC(C2NC(=O)C(c3c(C)cc(C)cc3C)=C2O)CC1` (stereo not drawn) [Compound P2.12, 4-hydroxy-5-(1-methoxy-piperidin-4-yl)-3-(2,4,6-trimethyl-phenyl)-1,5-dihydro-pyrrol-2-one], the melting point fell in the range of 206 to 209 °C.

As for `CON1CCC(CC2NC(=O)C(c3c(C)cc(C)cc3C)C2=O)CC1` (stereo not drawn) [Compound P2.13], the pest or weed control at 200 ppm in series [1] is at least 80%. Also, the pest or weed control at 400 ppm in series [2] and in series [3] was above 80% in each case.

`CON1CCC(C2NC(=O)C(c3cc(C)ccc3C)C2=O)CC1` (stereo not drawn) [Compound P2.14]: the pest or weed control at 200 ppm in series [1] was at least 80%.

In the case of `CON1CCC(CC2OC(=O)C(c3c(C)cc(C)cc3C)C2=O)CC1` (stereo not drawn) [Compound P2.16], the pest or weed control at 200 ppm in series [1] was at least 80%. The pest or weed control at 400 ppm in series [2] and in series [3] was above 80% in each case.

Take `CON1CCC(C2OC(=O)C(c3c(C)cc(C)cc3C)C2=O)CC1` (stereo not drawn) [Compound P2.17]: the pest or weed control at 200 ppm in series [1] is at least 80%. The pest or weed control at 400 ppm in series [2] and in series [3] was above 80% in each case.

For the compound `CON1CCC(C2NC(=O)C(c3c(C)cc(Cl)cc3C)C2=O)CC1` (stereo not drawn) [Compound P2.21], the pest or weed control at 200 ppm in series [1] is at least 80%. Also, the pest or weed control at 400 ppm in series [2] and in series [3] was above 80% throughout.

Regarding `CON1CCC(CC2NC(=O)C(c3c(C)cc(Cl)cc3C)C2=O)CC1` (stereo not drawn) [Compound P2.22], in series [1], the pest or weed control at 200 ppm was at least 80%. Further, in series [2], the pest or weed control at 400 ppm is above 80%.
